Legend:
[1] = target: T1, CD73 (Homo sapiens, UniProt P21589); test: In vitro enzymatic activity against CD73 (malachite green test using soluble CD73); assay type: biochemical; conditions: soluble CD73 36 ng/mL, 50 μM AMP, 30 minutes at 25° C.
T1 construct: purchased R&D systems 5795-EN-010
T1 sequence (P21589 27-547 limits assumed): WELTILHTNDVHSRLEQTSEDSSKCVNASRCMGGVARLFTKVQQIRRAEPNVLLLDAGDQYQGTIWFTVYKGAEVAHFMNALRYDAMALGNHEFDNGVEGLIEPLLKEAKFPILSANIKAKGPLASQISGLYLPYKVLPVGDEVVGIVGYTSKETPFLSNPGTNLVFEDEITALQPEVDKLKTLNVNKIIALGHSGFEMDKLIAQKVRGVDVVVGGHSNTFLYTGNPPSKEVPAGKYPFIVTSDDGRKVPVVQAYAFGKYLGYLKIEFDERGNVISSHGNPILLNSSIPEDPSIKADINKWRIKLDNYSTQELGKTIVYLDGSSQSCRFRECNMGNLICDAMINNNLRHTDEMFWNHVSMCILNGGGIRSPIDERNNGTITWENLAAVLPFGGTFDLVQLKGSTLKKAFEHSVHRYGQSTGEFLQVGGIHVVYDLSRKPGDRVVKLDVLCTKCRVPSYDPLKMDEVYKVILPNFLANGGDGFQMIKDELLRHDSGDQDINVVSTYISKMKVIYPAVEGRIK
In short: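 Soluble recombinant CD73 (36 ng/mL) incubated with compound and 50 μM AMP for 30 min at 25 °C in 25 mM Tris pH 7.5, 5 mM MgCl2, 0.005% Tween-20. Released inorganic phosphate read by malachite green; IC50 from non-linear regression of % inhibition.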

[2] = target: T2, CD73 enzymatic activity expressed on the cell surface of MDA-MB-231 cells (Homo sapiens, UniProt P21589); test: Inhibition of CD73 enzymatic activity on the cell surface (Cell Titer Glo (CTG) experiment), MDA-MB-231 cells; assay type: cell-based; conditions: MDA-MB-231 cells endogenously expressing CD73, AMP, 37° C. for 2 hours, CTG readout; read-out: Cellular activity IC50
T2 construct: Human breast cancer cells MDA-MB-231 that endogenously express CD73 were used; host or cells: MDA-MB-231
T2 sequence (P21589 27-549): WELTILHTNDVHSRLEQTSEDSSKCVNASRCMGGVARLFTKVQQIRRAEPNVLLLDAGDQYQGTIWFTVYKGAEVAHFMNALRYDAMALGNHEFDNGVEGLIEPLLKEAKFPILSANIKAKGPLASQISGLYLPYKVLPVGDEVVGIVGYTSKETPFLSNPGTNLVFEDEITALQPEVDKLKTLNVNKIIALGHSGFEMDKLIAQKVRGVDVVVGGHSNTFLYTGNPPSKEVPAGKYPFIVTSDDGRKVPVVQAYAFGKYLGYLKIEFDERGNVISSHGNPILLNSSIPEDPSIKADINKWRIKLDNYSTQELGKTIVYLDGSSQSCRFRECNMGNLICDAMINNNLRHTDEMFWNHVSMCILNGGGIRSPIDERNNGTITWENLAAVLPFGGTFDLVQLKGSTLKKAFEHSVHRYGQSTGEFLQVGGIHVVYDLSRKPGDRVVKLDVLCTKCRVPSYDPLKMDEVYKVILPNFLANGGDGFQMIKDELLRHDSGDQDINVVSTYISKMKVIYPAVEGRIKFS
In short: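 MDA-MB-231 cells with endogenous CD73 were washed serum-free, preincubated with compound for 15 min, then given AMP (1.2 mM stock) for 2 h at 37° C. Remaining AMP in the supernatant was read by CellTiter-Glo with added ATP. IC50 came from a four-parameter logistic fit.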

## O=P(O)(O)CP(=O)(O)OC[C@H]1C[C@@H](c2ccc3c(N[C@@H]4CCc5cc(C(F)(F)F)ccc54)nc(Cl)nn23)[C@H](O)[C@@H]1O [Example 39, (((((1R,2R,3S,4S)-4-(2-chloro-4-(((R)-5-(trifluoromethyl)-2,3-dihydro-1H-inden-1-yl)amino)pyrrolo[2,1-f][1,2,4]triazin-7-yl)-2,3-dihydroxycyclopentyl)methoxy)(hydroxy)phosphoryl)methyl)phosphonic acid]
[1]
  IC50: 63 nM
[2]
  IC50: 0.743 nM
